Results as given in patent US12371428B2 (Exelixis, Inc., priority 2019, dated 2025).

Tests used:
Format in all cases: cell-based
[1] = target: Mer (phospho-Mer, MERTK-transfected 293A cells) (Homo sapiens (Human), UniProt Q12866); experiment: Mer autophosphorylation ELISA in transient transfected 293A cells (Example H); details: cellular activity; Mer autophosphorylation ELISA in transient transfected 293A cells
Method in brief: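 IC50 from 4-parameter logistic fit of phospho-Mer levels, quantified by ELISA against a phospho-Mer standard in lysates of MERTK-transfected 293A cells. Cells exposed 1 h to 8-point serial dilutions, serum-free, 0.3% DMSO; controls: DMSO (100%) and reference inhibitor (0%).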

[2] = target: Met (phospho-Met, HGF-stimulated PC-3 prostate cancer cells) (Homo sapiens (Human), UniProt P08581); experiment: Met autophosphorylation ELISA in PC-3 cells (Example F); details: cellular activity; Met autophosphorylation ELISA in PC-3 cells; read-out: c-Met IC50
Method in brief: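 Serum-starved (3 h) PC-3 cells were treated 1 h with compounds (8-point curve, 0.3% DMSO), then stimulated with 100 ng/mL human HGF for 10 min. Lysate phospho-Met (panTyr) was measured by sandwich ELISA, normalised to DMSO and reference-inhibitor controls. IC50 came from 4-parameter logistic fit.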

[3] = target: AXL (phospho-AXL, Gas6-stimulated A-172 glioblastoma cells) (Homo sapiens (Human), UniProt P30530); experiment: AXL autophosphorylation ELISA in A-172 cells (Example E); details: cellular activity; AXL autophosphorylation ELISA in A-172 cells; read-out: Axl IC50
Method in brief: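 Phospho-AXL was measured by ELISA in lysates of Gas6-stimulated A-172 cells, starved 24 h in serum-free medium and exposed 1 h to an 8-point compound dilution at 0.3% DMSO.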

[4] = target: KDR (phospho-KDR, VEGF165-stimulated HUVEC cells) (Homo sapiens (Human), UniProt P35968); experiment: KDR autophosphorylation ELISA in HUVEC cells (Example G); details: cellular activity; KDR autophosphorylation ELISA in HUVEC cells
Method in brief: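 First, endothelial cells were cultured a day, then kept without serum for another day. Next came 1 h with serially diluted compound, a brief 5 min VEGF165 stimulus (100 ng/mL), rapid lysis, and ELISA detection of receptor phosphorylation relative to stimulated and non-stimulated controls.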

Mer (phospho-Mer, MERTK-transfected 293A cells), sequence (Q12866 21-999): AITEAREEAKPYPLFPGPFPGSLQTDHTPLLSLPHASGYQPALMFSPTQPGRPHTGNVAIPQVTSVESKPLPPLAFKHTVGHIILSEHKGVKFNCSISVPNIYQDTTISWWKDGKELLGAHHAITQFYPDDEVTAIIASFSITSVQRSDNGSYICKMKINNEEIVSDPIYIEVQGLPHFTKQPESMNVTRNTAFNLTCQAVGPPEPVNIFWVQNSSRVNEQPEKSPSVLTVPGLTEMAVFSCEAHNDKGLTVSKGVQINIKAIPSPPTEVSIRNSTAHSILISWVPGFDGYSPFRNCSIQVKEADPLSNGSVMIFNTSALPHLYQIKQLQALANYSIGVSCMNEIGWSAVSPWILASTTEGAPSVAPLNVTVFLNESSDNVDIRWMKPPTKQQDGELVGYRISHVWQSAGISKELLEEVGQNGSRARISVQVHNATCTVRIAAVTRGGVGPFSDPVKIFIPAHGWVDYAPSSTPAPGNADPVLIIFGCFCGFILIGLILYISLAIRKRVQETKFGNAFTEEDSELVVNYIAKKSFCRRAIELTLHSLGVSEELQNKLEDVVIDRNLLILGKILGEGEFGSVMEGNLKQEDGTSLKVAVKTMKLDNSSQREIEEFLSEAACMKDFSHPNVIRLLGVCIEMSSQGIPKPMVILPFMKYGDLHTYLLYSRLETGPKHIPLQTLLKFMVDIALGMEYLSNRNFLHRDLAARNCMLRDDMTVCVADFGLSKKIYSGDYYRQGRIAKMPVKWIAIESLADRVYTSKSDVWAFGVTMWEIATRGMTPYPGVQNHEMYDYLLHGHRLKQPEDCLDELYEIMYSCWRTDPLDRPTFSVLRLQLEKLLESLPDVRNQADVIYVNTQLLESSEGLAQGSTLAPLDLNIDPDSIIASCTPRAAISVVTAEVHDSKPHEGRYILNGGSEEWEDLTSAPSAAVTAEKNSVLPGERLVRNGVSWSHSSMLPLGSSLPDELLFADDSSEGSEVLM
Met (phospho-Met, HGF-stimulated PC-3 prostate cancer cells), sequence (P08581 25-1390): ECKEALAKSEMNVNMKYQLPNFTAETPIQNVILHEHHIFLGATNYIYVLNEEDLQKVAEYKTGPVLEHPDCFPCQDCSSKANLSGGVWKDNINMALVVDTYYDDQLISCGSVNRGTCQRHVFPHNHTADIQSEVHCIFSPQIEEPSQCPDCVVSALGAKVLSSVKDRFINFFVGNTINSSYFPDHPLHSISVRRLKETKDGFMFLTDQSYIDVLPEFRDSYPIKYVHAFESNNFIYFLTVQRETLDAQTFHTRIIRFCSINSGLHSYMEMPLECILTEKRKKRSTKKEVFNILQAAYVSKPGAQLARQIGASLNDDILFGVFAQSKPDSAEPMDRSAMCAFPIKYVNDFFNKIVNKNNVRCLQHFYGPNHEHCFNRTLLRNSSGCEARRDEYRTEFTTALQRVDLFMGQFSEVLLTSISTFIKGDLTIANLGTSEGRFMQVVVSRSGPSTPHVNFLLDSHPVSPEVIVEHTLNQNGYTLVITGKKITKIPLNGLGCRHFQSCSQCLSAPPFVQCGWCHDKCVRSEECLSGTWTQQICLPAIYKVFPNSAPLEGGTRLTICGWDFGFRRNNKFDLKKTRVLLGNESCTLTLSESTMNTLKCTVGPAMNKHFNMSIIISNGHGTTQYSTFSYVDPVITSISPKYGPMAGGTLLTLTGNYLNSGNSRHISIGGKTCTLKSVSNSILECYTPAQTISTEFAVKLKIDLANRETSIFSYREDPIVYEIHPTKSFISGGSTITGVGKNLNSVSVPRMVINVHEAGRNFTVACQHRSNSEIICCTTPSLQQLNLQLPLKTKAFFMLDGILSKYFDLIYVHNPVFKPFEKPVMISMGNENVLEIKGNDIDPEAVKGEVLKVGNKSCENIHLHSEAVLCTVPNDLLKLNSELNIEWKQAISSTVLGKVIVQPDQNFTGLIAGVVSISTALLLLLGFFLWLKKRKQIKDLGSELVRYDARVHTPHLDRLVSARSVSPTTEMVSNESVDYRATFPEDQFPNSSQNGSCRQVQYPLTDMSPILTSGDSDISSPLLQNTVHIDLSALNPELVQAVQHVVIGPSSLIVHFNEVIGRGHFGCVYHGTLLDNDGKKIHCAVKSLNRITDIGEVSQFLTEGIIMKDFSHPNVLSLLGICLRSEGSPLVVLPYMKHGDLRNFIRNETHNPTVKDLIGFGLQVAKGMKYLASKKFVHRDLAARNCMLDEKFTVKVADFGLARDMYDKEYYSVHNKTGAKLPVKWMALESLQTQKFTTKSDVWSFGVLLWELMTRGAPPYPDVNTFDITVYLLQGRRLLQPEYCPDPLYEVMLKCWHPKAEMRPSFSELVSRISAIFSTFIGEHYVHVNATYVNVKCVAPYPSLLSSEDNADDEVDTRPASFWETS
KDR (phospho-KDR, VEGF165-stimulated HUVEC cells), sequence (P35968 20-1356): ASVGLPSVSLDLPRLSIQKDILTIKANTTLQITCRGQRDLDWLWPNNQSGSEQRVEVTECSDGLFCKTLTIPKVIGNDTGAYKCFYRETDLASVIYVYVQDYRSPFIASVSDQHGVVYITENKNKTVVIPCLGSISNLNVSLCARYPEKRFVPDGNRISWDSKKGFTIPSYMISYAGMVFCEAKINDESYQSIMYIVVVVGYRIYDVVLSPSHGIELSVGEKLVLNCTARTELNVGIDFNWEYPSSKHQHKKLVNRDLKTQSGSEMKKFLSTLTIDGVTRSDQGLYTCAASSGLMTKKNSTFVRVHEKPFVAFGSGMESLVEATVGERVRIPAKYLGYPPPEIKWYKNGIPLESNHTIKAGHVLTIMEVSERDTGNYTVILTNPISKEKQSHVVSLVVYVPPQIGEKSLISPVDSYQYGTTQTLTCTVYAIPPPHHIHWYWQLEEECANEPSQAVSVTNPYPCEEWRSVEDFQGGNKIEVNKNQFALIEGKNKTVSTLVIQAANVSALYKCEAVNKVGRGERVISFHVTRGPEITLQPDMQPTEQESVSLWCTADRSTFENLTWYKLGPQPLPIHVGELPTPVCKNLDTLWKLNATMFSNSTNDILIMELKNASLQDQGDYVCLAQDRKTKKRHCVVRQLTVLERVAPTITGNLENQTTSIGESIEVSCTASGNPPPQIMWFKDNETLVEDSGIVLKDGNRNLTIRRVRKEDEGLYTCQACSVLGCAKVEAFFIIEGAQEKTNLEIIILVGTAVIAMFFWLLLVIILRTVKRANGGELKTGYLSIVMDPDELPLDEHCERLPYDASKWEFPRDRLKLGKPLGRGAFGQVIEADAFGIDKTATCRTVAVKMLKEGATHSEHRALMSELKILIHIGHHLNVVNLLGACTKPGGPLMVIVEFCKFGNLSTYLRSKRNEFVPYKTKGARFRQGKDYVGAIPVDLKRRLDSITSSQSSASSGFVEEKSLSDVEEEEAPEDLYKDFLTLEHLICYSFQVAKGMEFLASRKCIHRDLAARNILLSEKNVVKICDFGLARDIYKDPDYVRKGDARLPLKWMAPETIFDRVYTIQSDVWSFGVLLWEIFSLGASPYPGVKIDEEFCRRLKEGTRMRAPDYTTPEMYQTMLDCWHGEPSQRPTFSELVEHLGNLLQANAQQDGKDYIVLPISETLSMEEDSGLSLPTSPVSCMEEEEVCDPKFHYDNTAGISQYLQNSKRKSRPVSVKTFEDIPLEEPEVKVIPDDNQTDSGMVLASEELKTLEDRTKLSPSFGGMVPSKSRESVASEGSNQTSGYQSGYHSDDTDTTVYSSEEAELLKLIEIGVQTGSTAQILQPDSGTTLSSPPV
AXL (phospho-AXL, Gas6-stimulated A-172 glioblastoma cells), sequence (P30530 26-894): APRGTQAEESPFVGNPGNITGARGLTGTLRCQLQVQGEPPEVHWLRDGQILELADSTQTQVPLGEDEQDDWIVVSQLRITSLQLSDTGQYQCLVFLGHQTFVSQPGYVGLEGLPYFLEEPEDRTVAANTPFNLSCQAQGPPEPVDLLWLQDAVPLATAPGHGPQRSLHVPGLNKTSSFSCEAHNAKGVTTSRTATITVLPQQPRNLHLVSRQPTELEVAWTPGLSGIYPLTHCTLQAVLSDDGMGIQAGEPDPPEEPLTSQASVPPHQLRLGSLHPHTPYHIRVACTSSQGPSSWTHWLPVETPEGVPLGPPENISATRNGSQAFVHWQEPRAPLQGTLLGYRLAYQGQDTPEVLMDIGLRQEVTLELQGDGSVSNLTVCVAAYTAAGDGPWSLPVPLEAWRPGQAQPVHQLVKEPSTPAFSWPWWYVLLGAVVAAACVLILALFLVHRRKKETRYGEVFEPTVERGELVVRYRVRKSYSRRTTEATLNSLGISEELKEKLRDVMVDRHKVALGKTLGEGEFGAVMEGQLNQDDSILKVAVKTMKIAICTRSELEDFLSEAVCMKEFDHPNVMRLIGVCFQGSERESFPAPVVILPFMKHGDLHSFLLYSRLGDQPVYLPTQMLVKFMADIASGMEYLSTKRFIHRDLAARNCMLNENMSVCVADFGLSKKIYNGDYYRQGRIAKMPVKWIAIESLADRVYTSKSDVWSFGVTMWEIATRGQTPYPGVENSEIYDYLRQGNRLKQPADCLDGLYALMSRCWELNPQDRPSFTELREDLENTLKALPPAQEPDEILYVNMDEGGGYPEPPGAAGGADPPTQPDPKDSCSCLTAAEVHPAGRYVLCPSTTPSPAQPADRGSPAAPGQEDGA

Compound | IC50 [1] | IC50 [2] | IC50 [3] | IC50 [4]
COCc1nc(C)c(-c2ccc(F)cc2)c(O)c1C(=O)Nc1ccc(Oc2ccnc3cnc(Cl)cc23)c(F)c1 [Compound 502, N-[4-[(6-Chloro-1,7-naphthyridin-4-yl)oxy]-3-fluorophenyl]-5-(4-fluorophenyl)-4-hydroxy-2-(methoxymethyl)-6-methylpyridine-3-carboxamide] | < 100 nM | < 100 nM | < 100 nM | < 100 nM
COCc1cnn(-c2ccc(F)cc2)c(=O)c1C(=O)Nc1ccc(Oc2ccnc3cc(OC)c(OC)nc23)c(F)c1 [Compound 533, N-[4-[(6,7-dimethoxy-1,5-naphthyridin-4-yl)oxy]-3-fluorophenyl]-2-(4-fluorophenyl)-5-(methoxymethyl)-3-oxopyridazine-4-carboxamide] | < 100 nM | < 100 nM | < 100 nM | < 100 nM
COc1cc2nccc(Oc3ccc(NC(=O)c4nnc(C)c(-c5ccc(F)cc5)c4OC)cc3)c2nc1OC [Compound 534, N-[4-[(6,7-dimethoxy-1,5-naphthyridin-4-yl)oxy]phenyl]-5-(4-fluorophenyl)-4-methoxy-6-methylpyridazine-3-carboxamide] | < 100 nM | < 100 nM | < 100 nM | < 100 nM
COc1ccc2nccc(Oc3ccc(NC(=O)c4nnc(C)c(-c5ccc(F)cc5)c4OC)cc3F)c2n1 [Compound 538, N-[3-fluoro-4-[(6-methoxy-1,5-naphthyridin-4-yl)oxy]phenyl]-5-(4-fluorophenyl)-4-methoxy-6-methylpyridazine-3-carboxamide] | < 100 nM | < 100 nM | < 100 nM | < 100 nM
COc1cc2nccc(Oc3ccc(NC(=O)c4cn5c(c(-c6ccc(F)cc6)c4=O)COCC5)cc3F)c2nc1OC [Compound 564, N-[4-[(6,7-Dimethoxy-1,5-naphthyridin-4-yl)oxy]-3-fluorophenyl]-9-(4-fluorophenyl)-8-oxo-3,4-dihydro-1H-pyrido[2,1-c][1,4]oxazine-7-carboxamide] | < 100 nM | < 100 nM | < 100 nM | 100 to 300 nM
CNC(=O)Cc1nc2c(Oc3ccc(NC(=O)c4cnc(C)c(-c5ccc(F)cc5)c4O)cc3F)ccnc2cc1OC [Compound 570, N-[3-Fluoro-4-[[7-methoxy-6-[2-(methylamino)-2-oxoethyl]-1,5-naphthyridin-4-yl]oxy]phenyl]-5-(4-fluorophenyl)-4-hydroxy-6-methylpyridine-3-carboxamide] | < 100 nM | < 100 nM | < 100 nM | < 100 nM
CCOc1c(C(=O)Nc2ccc(Oc3ccnc4cc(OC)c(OC)cc34)c(F)c2)nnc(C)c1-c1ccc(F)cc1 [Compound 572, N-[4-(6,7-Dimethoxyquinolin-4-yl)oxy-3-fluorophenyl]-4-ethoxy-5-(4-fluorophenyl)-6-methylpyridazine-3-carboxamide] | < 100 nM | < 100 nM | < 100 nM | < 100 nM
CCn1nc(C(=O)Nc2ccc(Oc3ccnc4cc(OC)c(OC)cc34)c(F)c2)c(=O)c(-c2ccc(F)cc2)c1C [Compound 573, N-[4-(6,7-Dimethoxyquinolin-4-yl)oxy-3-fluorophenyl]-1-ethyl-5-(4-fluorophenyl)-6-methyl-4-oxopyridazine-3-carboxamide] | < 100 nM | < 100 nM | < 100 nM | < 100 nM
COCCOc1cc2ncnc(Oc3ccc(NC(=O)c4ccc(C)n(-c5ccc(F)cc5)c4=O)cc3F)c2nc1OC [Compound 638, N-[3-fluoro-4-[6-methoxy-7-(2-methoxyethoxy)pyrido[3,2-d]pyrimidin-4-yl]oxyphenyl]-1-(4-fluorophenyl)-6-methyl-2-oxopyridine-3-carboxamide] | < 100 nM | < 100 nM | < 100 nM | < 100 nM
COc1cc2nccc(Oc3ccc(NC(=O)c4c[nH]c(=S)n(-c5ccc(F)cc5)c4=O)cc3F)c2cc1OC [Compound 646, N-[4-(6,7-dimethoxyquinolin-4-yl)oxy-3-fluorophenyl]-3-(4-fluorophenyl)-4-oxo-2-sulfanylidene-1H-pyrimidine-5-carboxamide] | < 100 nM | < 100 nM | < 100 nM | < 100 nM

The remaining lines, values ahead:

IC50 [1] | IC50 [2] | IC50 [3] | IC50 [4] | Compound
< 100 nM | < 100 nM | < 100 nM | < 100 nM | COCc1nc(C)c(-c2ccc(F)cc2)c(O)c1C(=O)Nc1ccc(Oc2ccnc3cnc(OC)cc23)c(F)c1 [Compound 501, N-[3-Fluoro-4-[(6-methoxy-1,7-naphthyridin-4-yl)oxy]phenyl]-5-(4-fluorophenyl)-4-hydroxy-2-(methoxymethyl)-6-methylpyridine-3-carboxamide]
< 100 nM | < 100 nM | < 100 nM | < 100 nM | COc1cc2nccc(Oc3ccc(NC(=O)c4nnc(C)c(-c5ccc(F)cc5)c4OC)cc3F)c2nc1OC [Compound 531, N-[4-[(6,7-dimethoxy-1,5-naphthyridin-4-yl)oxy]-3-fluorophenyl]-5-(4-fluorophenyl)-4-methoxy-6-methylpyridazine-3-carboxamide]
< 100 nM | < 100 nM | < 100 nM | > 300 nM | COCc1cnn(-c2ccc(F)cc2)c(=O)c1C(=O)Nc1ccc(Oc2ccnc3cc(OC)cnc23)c(F)c1 [Compound 532, N-[3-fluoro-4-[(7-methoxy-1,5-naphthyridin-4-yl)oxy]phenyl]-2-(4-fluorophenyl)-5-(methoxymethyl)-3-oxopyridazine-4-carboxamide]
< 100 nM | < 100 nM | < 100 nM | > 300 nM | COCc1nc(C)c(Br)c(O)c1C(=O)Nc1ccc(Oc2ccnc3cc(OC)c(OC)nc23)c(F)c1 [Compound 535, 5-bromo-N-[4-[(6,7-dimethoxy-1,5-naphthyridin-4-yl)oxy]-3-fluorophenyl]-4-hydroxy-2-(methoxymethyl)-6-methylpyridine-3-carboxamide]
> 300 nM | > 300 nM | > 300 nM | > 300 nM | COc1cc2nccc(Oc3ccc(NC(=O)c4n[nH]c(C)cc4=O)cc3F)c2nc1OC [Compound 536, N-[4-[(6,7-dimethoxy-1,5-naphthyridin-4-yl)oxy]-3-fluorophenyl]-6-methyl-4-oxo-1H-pyridazine-3-carboxamide]
< 100 nM | < 100 nM | < 100 nM | < 100 nM | COCc1cnn(-c2ccc(F)cc2)c(=O)c1C(=O)Nc1ccc(Oc2ccnc3cc(OC)c(OC)nc23)cc1 [Compound 537, N-[4-[(6,7-dimethoxy-1,5-naphthyridin-4-yl)oxy]phenyl]-2-(4-fluorophenyl)-5-(methoxymethyl)-3-oxopyridazine-4-carboxamide]
< 100 nM | < 100 nM | < 100 nM | < 100 nM | COc1cc2nccc(Oc3ccc(NC(=O)c4nnc(C)c(-c5ccc(F)cc5)c4OC)cc3F)c2cc1OC [Compound 571, N-[4-(6,7-Dimethoxyquinolin-4-yl)oxy-3-fluorophenyl]-5-(4-fluorophenyl)-4-methoxy-6-methylpyridazine-3-carboxamide]
< 100 nM | < 100 nM | < 100 nM | < 100 nM | COc1cc2nccc(Oc3ccc(NC(=O)c4nnc(C)c(-c5ccc(F)cc5)c4OC(C)C)cc3F)c2cc1OC [Compound 574, N-[4-(6,7-Dimethoxyquinolin-4-yl)oxy-3-fluorophenyl]-5-(4-fluorophenyl)-6-methyl-4-propan-2-yloxypyridazine-3-carboxamide]
< 100 nM | < 100 nM | < 100 nM | < 100 nM | COc1cc2nccc(Oc3ccc(NC(=O)c4nn(C(C)C)c(C)c(-c5ccc(F)cc5)c4=O)cc3F)c2cc1OC [Compound 575, N-[4-(6,7-Dimethoxyquinolin-4-yl)oxy-3-fluorophenyl]-5-(4-fluorophenyl)-6-methyl-4-oxo-1-propan-2-ylpyridazine-3-carboxamide]
< 100 nM | > 300 nM | > 300 nM | > 300 nM | COc1cc2nccc(Oc3ccc(NC(=O)c4cc(-c5ccc(F)cc5)c(C)nn4)cc3F)c2nc1OC [Compound 601, N-[4-[(6,7-Dimethoxy-1,5-naphthyridin-4-yl)oxy]-3-fluorophenyl]-5-(4-fluorophenyl)-6-methylpyridazine-3-carboxamide]
< 100 nM | < 100 nM | < 100 nM | < 100 nM | COc1cc2ncnc(Oc3ccc(NC(=O)c4ccc(C)n(-c5ccc(F)cc5)c4=O)cc3F)c2nc1OC [Compound 635]
